ChEMBL document CHEMBL1687871, “Phragmalin- and mexicanolide-type limonoids from the leaves of Trichilia connaroides” (J Nat Prod, 2011)

System: HL-60
Assay: Cytotoxicity against human HL60 cells
Assay type: functional, cell-based

SMILES | IC50 [µM]
C/C=C(\C)C(=O)O[C@H]1[C@@]2(C)C[C@@]3(OC(C)=O)[C@](C)([C@H]4CC[C@]5(C)C(=C4[C@H](OC(C)=O)[C@@]13OC(C)=O)[C@@H](OC(C)=O)C(=O)O[C@H]5c1ccoc1)[C@H]2CC(=O)OC [15-ACETYLTRICHAGMALIN E] | 21
C/C=C(\C)C(=O)O[C@H]1[C@@]2(C)C[C@@]3(O)[C@](C)([C@H]4CC[C@]5(C)C(=C4[C@H](OC(C)=O)[C@@]13O)[C@@H](OC(C)=O)C(=O)O[C@H]5c1ccoc1)[C@H]2CC(=O)OC [TRICHAGMALIN D] | 17.1
